Measured values as given in ChEMBL document CHEMBL1201862, “PubChem BioAssay data set” (2004).
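Test compounds were applied to cells in 96-well plates for 48 hours at 5 doses. GI50: concentration for 50% inhibition of growth.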 Calls of active or inactive are those of the source. Cut-off read from the data, not from the text of the source: active = GI50 up to about 1.1 µM and inactive = higher.

What was measured:
Assay in all cases: DTP human tumour cell line panel, 48 h
[1] = tested on: KM12
[2] = tested on: Malme-3M
[3] = tested on: CCRF-CEM
[4] = tested on: SNB-75
[5] = tested on: SK-MEL-28
[6] = tested on: BT-549
[7] = tested on: UO-31
[8] = tested on: HOP-92
[9] = tested on: SR
[10] = tested on: MDA-MB-435
[11] = tested on: K562
[12] = tested on: SNB-19
[13] = tested on: MDA-N
[14] = tested on: HL-60
[15] = tested on: SW-620
[16] = tested on: SF-539
[17] = tested on: EKVX
[18] = tested on: HOP-62
[19] = tested on: RXF 393
[20] = tested on: LOX IMVI
[21] = tested on: SK-MEL-2
[22] = tested on: SN12C
[23] = tested on: OVCAR-3
[24] = tested on: A549
[25] = tested on: A498
[26] = tested on: UACC-62
[27] = tested on: Hs-578T
[28] = tested on: TK-10
[29] = tested on: OVCAR-4
[30] = tested on: M14
[31] = tested on: ACHN
[32] = tested on: NCI-H522
[33] = tested on: COLO 205
[34] = tested on: 786-0
[35] = tested on: SF-268
[36] = tested on: SF-295
[37] = tested on: DU-145
[38] = tested on: MOLT-4
[39] = tested on: HCC 2998
[40] = tested on: SK-MEL-5
[41] = tested on: OVCAR-8
[42] = tested on: MCF7
[43] = tested on: OVCAR-5
[44] = tested on: NCI-H460
[45] = tested on: IGROV-1
[46] = tested on: RPMI-8226
[47] = tested on: T47D
[48] = tested on: HCT-15
[49] = tested on: CAKI-1
[50] = tested on: UACC-257
[51] = tested on: HT-29
[52] = tested on: U-251
[53] = tested on: NCI-H226
[54] = tested on: HCT-116
[55] = tested on: NCI/ADR-RES
[56] = tested on: PC-3
[57] = tested on: NCI-H23
[58] = tested on: MDA-MB-231
[59] = tested on: SK-OV-3

## COC(=O)c1ccccc1/C=C1\Cc2cc(C)c(C)cc2C1=O
[1]
  GI50: > 100 µM (inactive)
[2]
  GI50: > 100 µM (inactive)
[3]
  GI50: > 100 µM (inactive)
[4]
  GI50: 26.5 µM (inactive)
[5]
  GI50: > 100 µM (inactive)
[6]
  GI50: 34.5 µM (inactive)
[7]
  GI50: 84.1 µM (inactive)
[8]
  GI50: 21.2 µM (inactive)
[9]
  GI50: > 100 µM (inactive)
[10]
  GI50: > 100 µM (inactive)
[11]
  GI50: > 100 µM (inactive)
[12]
  GI50: 33.4 µM (inactive)
[13]
  GI50: > 100 µM (inactive)
[14]
  GI50: > 100 µM (inactive)
[15]
  GI50: > 100 µM (inactive)
[16]
  GI50: > 100 µM (inactive)
[17]
  GI50: > 100 µM (inactive)
[18]
  GI50: 30.4 µM (inactive)
[19]
  GI50: 89.1 µM (inactive)
[20]
  GI50: > 100 µM (inactive)
[21]
  GI50: 14 µM (inactive)
[22]
  GI50: > 100 µM (inactive)
[23]
  GI50: > 100 µM (inactive)
[24]
  GI50: > 100 µM (inactive)
[25]
  GI50: 73.3 µM (inactive)
[26]
  GI50: > 100 µM (inactive)
[27]
  GI50: 40.7 µM (inactive)
[28]
  GI50: 36.9 µM (inactive)
[29]
  GI50: > 100 µM (inactive)
[30]
  GI50: > 100 µM (inactive)
[31]
  GI50: > 100 µM (inactive)
[32]
  GI50: 73.8 µM (inactive)
[33]
  GI50: > 100 µM (inactive)
[34]
  GI50: 54.8 µM (inactive)
[35]
  GI50: 40.3 µM (inactive)
[36]
  GI50: 49.3 µM (inactive)
[37]
  GI50: > 100 µM (inactive)
[38]
  GI50: > 100 µM (inactive)
[39]
  GI50: > 100 µM (inactive)
[40]
  GI50: > 100 µM (inactive)
[41]
  GI50: 55.7 µM (inactive)
[42]
  GI50: > 100 µM (inactive)
[43]
  GI50: > 100 µM (inactive)
[44]
  GI50: > 100 µM (inactive)
[45]
  GI50: > 100 µM (inactive)
[46]
  GI50: > 100 µM (inactive)
[47]
  GI50: > 100 µM (inactive)
[48]
  GI50: > 100 µM
[49]
  GI50: > 100 µM (inactive)
[50]
  GI50: > 100 µM (inactive)
[51]
  GI50: > 100 µM (inactive)
[52]
  GI50: 27.1 µM (inactive)
[53]
  GI50: 49 µM (inactive)
[54]
  GI50: > 100 µM (inactive)
[55]
  GI50: > 100 µM (inactive)
[56]
  GI50: > 100 µM (inactive)

## CN1CCN(c2ccc3nc(-c4cc(O)c5c(nc(CO)n5C)c4O)[nH]c3n2)CC1
[1]
  GI50: 54.2 µM (inactive)
[2]
  GI50: 18.4 µM (inactive)
[3]
  GI50: 18.8 µM (inactive)
[4]
  GI50: 20.6 µM (inactive)
[5]
  GI50: > 100 µM (inactive)
[57]
  GI50: 64.3 µM (inactive)
[6]
  GI50: > 100 µM (inactive)
[7]
  GI50: 55.1 µM (inactive)
[8]
  GI50: > 100 µM (inactive)
[10]
  GI50: 18.7 µM (inactive)
[11]
  GI50: 28.8 µM (inactive)
[12]
  GI50: 52.2 µM (inactive)
[13]
  GI50: 34.2 µM (inactive)
[14]
  GI50: 16.4 µM (inactive)
[15]
  GI50: 39.2 µM (inactive)
[16]
  GI50: 17.4 µM (inactive)
[17]
  GI50: 22.9 µM (inactive)
[58]
  GI50: 22.4 µM (inactive)
[18]
  GI50: 52 µM (inactive)
[19]
  GI50: 28.7 µM (inactive)
[20]
  GI50: 17.1 µM (inactive)
[21]
  GI50: 11 µM (inactive)
[22]
  GI50: 16.7 µM (inactive)
[23]
  GI50: 26.1 µM (inactive)
[24]
  GI50: 69.2 µM (inactive)
[26]
  GI50: 11.6 µM (inactive)
[59]
  GI50: > 100 µM (inactive)
[27]
  GI50: > 100 µM (inactive)
[29]
  GI50: 19.5 µM (inactive)
[30]
  GI50: 34.7 µM (inactive)
[31]
  GI50: 36.1 µM (inactive)
[32]
  GI50: 20.1 µM (inactive)
[33]
  GI50: 15.9 µM (inactive)
[34]
  GI50: 52.6 µM (inactive)
[35]
  GI50: 48.1 µM (inactive)
[36]
  GI50: > 100 µM (inactive)
[37]
  GI50: 43.8 µM (inactive)
[38]
  GI50: 17.6 µM (inactive)
[39]
  GI50: 39.9 µM (inactive)
[41]
  GI50: 28.6 µM (inactive)
[43]
  GI50: > 100 µM (inactive)
[44]
  GI50: 55.6 µM (inactive)
[45]
  GI50: 64.6 µM (inactive)
[46]
  GI50: 22.6 µM (inactive)
[47]
  GI50: 18.7 µM (inactive)
[48]
  GI50: > 100 µM
[49]
  GI50: > 100 µM (inactive)
[50]
  GI50: 34.7 µM (inactive)
[51]
  GI50: 31.3 µM (inactive)
[52]
  GI50: 15.1 µM (inactive)
[53]
  GI50: 22.7 µM (inactive)
[54]
  GI50: 41.9 µM (inactive)
[55]
  GI50: > 100 µM (inactive)
[56]
  GI50: 32.3 µM (inactive)
